Source: US20220162262A1, “NOVEL COMPOUNDS AND THERAPEUTIC USES THEREOF” (priority 2019, published 2022)
Positions of bridges follow the written chain, without caps; N, C: chain ends. Non-standard residues stand in square brackets, D forms with d. Residues, ends and D or L forms follow the SMILES beside them. *: point of attachment. X1 = CC(=O)NC1[C@H](OCCCNC(=O)COc2cc(C(=O)*)cc(-c3ccccc3)c2)OC(CO)[C@@H](O[C@@H]2OC(CO)[C@H](O)[C@H](O[C@H]3OC(CO)[C@H](O)C(O)[C@@H]3O)C2O)[C@@H]1O; X2 = CC(=O)NC1C(O)[C@H](OC2OC(CO)C(O)[C@H](O[C@H]3OC(CO)C(O)C(O)C3O)C2O)C(CO)O[C@H]1OCCCNC(=O)COc1cc(C(=O)*)cc(-c2ccccc2)c1; PEG8 = NCCOCCOCCOCCOCCOCCOCCOCCOCCC(=O)O; Gly(octyl) = CCCCCCCC[C@H](N)C(=O)O; Dab = NCC[C@H](N)C(=O)O; Dap = NC[C@H](N)C(=O)O; Ahx = NCCCCCC(=O)O

Legend:
Type in all cases: cell-based
[1] = system: P. aeruginosa (ATCC 27853); experiment: Flow cytometric anti-Gal IgM antibody recruitment assay, P. aeruginosa ATCC 27853; conditions: for IgM Recruitment (20 μM, Average fold change) P. aeruginosa ATCC 27853: 20 μM compound, anti-Gal M86 IgM, MFI fold shift over vehicle control
Procedure: (§1) Flow Cytometric Antibody Recruitment Assay Using an Anti-Galα1-3Galβ1-4GlcNAc (Anti-Gal) Antibody
(§2) A secondary fluorescently labelled anti-IgM antibody was used to detect the anti-Gal antibody binding.
(§3) The assays were carried out in polystyrene 96-well U bottom plates (Costar). Frozen stocks of bacteria in mid-exponential phase were thawed, centrifuged and resuspended in LB broth, Miller (Fisher BP1426-500) at OD595=0.2. The bacteria was grown to mid-exponential phase (OD595=0.4), washed once with Hank's Balanced Salt Solution with calcium and magnesium (HBSS+/+) and then resuspended in HBSS+/+ at a bacterial D595=0.6. Bacteria was diluted ⅙ and placed in the 96-well U bottom plate. The bacteria were then incubated for 45 minutes with the compounds of Example 1-4 and reference compounds A-D (see Table 1) at 20 μM concentrations, Polymyxin B at 20 μM concentrations, or buffer alone (vehicle control), at room temperature and shaking at 450 rpm. The bacteria were then washed three times with 200 μL HBSS+/+, prior to adding 50 μL of the mouse/human chimeric anti-Gal IgM antibody M86 (Absolute Antibody Ab00532) at a final concentration of 25 μg/mL in HBSS+/+. The samples were incubated for 1 hour at room temperature shaking at 450 rpm. The bacteria were washed three times as above, prior to adding 100 μL of a FITC-labeled anti-human IgM secondary antibody (Biolegend 314506) at 10 μg/mL in HBSS+/+ and incubating at room temperature for 1 hour at 450 rpm. After three final washes with 200 μL HBSS+/+, the bacteria were resuspended in 200 μL HBSS+/+ and evaluated for anti-Gal antibody binding on a Cytoflex flow cytometer (Beckman Coulter). 50,000 counts of bacterial particles were sampled and the median fluorescent shift was recorded in the FITC-A channel. Data from all samples were analysed using Kaluza software (Beckman Coulter).
(§4) The fold shift over background was calculated by dividing the Median Fluorescent Intensity (MFI) obtained in the presence of 20 μM of the Example compounds by the MFI value obtained in the vehicle controls, i.e., the absence of Examples. The higher the fold shift over background, the more anti-Gal was bound to the bacterial surface. The shift in fluorescence intensity (FITC) occurs due to the binding event at each end of the molecule.
(§5) The fold shift over background was calculated by dividing the Median Fluorescent Intensity (MFI) obtained in the presence of 20 μM of the Example compounds (10 μM for Reference Example A and Example 2 against P. aeruginosa ATCC 27853, 6 μM for Reference Example A and Example 2 against P. aeruginosa PAO1 ATCC 15692) by the MFI value obtained in the vehicle controls, i.e., the absence of Examples. […] The shift in fluorescence intensity (FITC) occurs due to the binding event at each end of the molecule.

[2] = system: E. coli K1:018ac:H7 (ATCC 700973); experiment: Flow cytometric anti-Gal IgM antibody recruitment assay, E. coli; conditions: for E. coli recruitment assay, side by side comparison with reference example (FIG. 2): 20 μM, in triplicate, E. coli ATCC 700973
Procedure: as §1, §2, §3, §4, §5

[3] = system: K. pneumoniae (NCTC 13465); experiment: Flow cytometric anti-Gal IgM antibody recruitment assay, K. pneumoniae; conditions: for IgM Recruitment (20 μM, Average fold change) K. pneumoniae NCTC 134655: 20 μM compound, anti-Gal M86 IgM, MFI fold shift over vehicle control; for K. pneumoniae recruitment assay, side by side comparison with reference example (FIG. 2): 20 μM, in triplicate
Procedure: as §1, §2, §3, §4
The fold shift over background was calculated by dividing the Median Fluorescent Intensity (MFI) obtained in the presence of 20 μM of the Example compounds (10 μM for Reference Example A and Example 2 against P. aeruginosa ATCC 27853, 6 μM for Reference Example A and Example 2 against P. aeruginosa PAO1 ATCC 15692) by the MFI value obtained in the vehicle controls, i.e., the absence of Examples. The higher the fold shift over background, the more anti-Gal was bound to the bacterial surface. The shift in fluorescence intensity (FITC) occurs due to the binding event at each end of the molecule.

Compound | IgM Recruitment (20 μM, Average fold change) P. aeruginosa ATCC 27853 [1] | E. coli recruitment assay, side by side comparison with reference example (FIG. 2) [2] | P. aeruginosa recruitment assay, side by side comparison with reference example (FIG. 2C) ([1]; 20 μM, in triplicate) | IgM Recruitment (20 μM, Average fold change) K. pneumoniae NCTC 134655 [3] | K. pneumoniae recruitment assay, side by side comparison with reference example (FIG. 2) [3] | IgM Recruitment (20 μM, Average fold change) E. coli K1 ATCC700973 ([2]; 20 μM compound, anti-Gal M86 IgM, MFI fold shift over vehicle control)
CCCCCCCC[C@H](NC(=O)CCCCCNC(=O)CCCCCNC(=O)c1cc(OCC(=O)NCCCO[C@@H]2OC(CO)[C@@H](OC3OC(CO)C(O)[C@H](O[C@H]4OC(CO)C(O)C(O)C4O)C3O)C(O)C2NC(C)=O)cc(-c2ccccc2)c1)C(=O)N[C@@H](CCN)C(=O)N[C@H](C(=O)N[C@@H](CCN)C(=O)N[C@H]1CCNC(=O)[C@H]([C@@H](C)O)NC(=O)[C@H](CCN)NC(=O)[C@H](CCN)NC(=O)[C@H](CC(C)C)NC(=O)[C@@H](Cc2ccccc2)NC(=O)[C@H](CCN)NC1=O)[C@@H](C)O (stereo partly shown) [Example 1] ({X2-Ahx-Ahx}-[Gly(octyl)][Dab]T[Dab][Dab][Dab][dF]L[Dab][Dab]T; lactam 5-C) | 391 (n = 2) fold change | superiority over Reference Example B | – | – | – | –
CCCCCCCC[C@H](NC(=O)CCOCCOCCOCCOCCOCCOCCOCCOCCNC(=O)c1cc(OCC(=O)NCCCO[C@@H]2OC(CO)[C@@H](O[C@@H]3OC(CO)[C@H](O)[C@H](O[C@H]4OC(CO)[C@H](O)C(O)[C@@H]4O)C3O)[C@H](O)C2NC(C)=O)cc(-c2ccccc2)c1)C(=O)N[C@@H](CCN)C(=O)N[C@H](C(=O)N[C@H](CO)C(=O)N[C@H]1CCNC(=O)[C@H]([C@@H](C)O)NC(=O)[C@H](CCN)NC(=O)[C@H](CCN)NC(=O)[C@H](CC(C)C)NC(=O)[C@@H](Cc2ccccc2)NC(=O)[C@H](CCN)NC1=O)[C@@H](C)O (stereo partly shown) [Example 3] ({X1-PEG8}-[Gly(octyl)][Dab]T[dS][Dab][Dab][dF]L[Dab][Dab]T; lactam 5-C) | 1491 (n = 4) fold change | superiority over Reference Example C | superiority over Reference Example C | 1015 (n = 4) fold change | superiority over Reference Example C | –
CCCCCCCC[C@H](NC(=O)CCOCCOCCOCCOCCOCCOCCOCCOCCNC(=O)c1cc(OCC(=O)NCCCO[C@@H]2OC(CO)[C@@H](O[C@@H]3OC(CO)[C@H](O)[C@H](O[C@H]4OC(CO)[C@H](O)C(O)[C@@H]4O)C3O)[C@H](O)C2NC(C)=O)cc(-c2ccccc2)c1)C(=O)N[C@@H](CCN)C(=O)N[C@H](C(=O)N[C@@H](CN)C(=O)N[C@H]1CCNC(=O)[C@H]([C@@H](C)O)NC(=O)[C@H](CCN)NC(=O)[C@H](CCN)NC(=O)[C@H](CC(C)C)NC(=O)[C@@H](Cc2ccccc2)NC(=O)[C@H](CCN)NC1=O)[C@@H](C)O (stereo partly shown) [Example 4] ({X1-PEG8}-[Gly(octyl)][Dab]T[Dap][Dab][Dab][dF]L[Dab][Dab]T; lactam 5-C) | – | superiority over Reference Example D | – | 898 (n = 2) fold change | superiority over Reference Example D | –
Polymyxin B [PMB, reference compound] | 1 (n = 5) fold change | – | – | 1 (n = 2) fold change | – | 1 (n = 5) fold change
